Experiments:
[1] = Volume of distribution at steady state in rat after iv administration; settings: in vivo
[2] = Clearance in dog after iv administration; settings: in vivo
[3] = Volume of distribution at steady state in dog after iv administration; settings: in vivo
[4] = Clearance in monkey after iv administration; settings: macaca, in vivo
[5] = Volume of distribution at steady state in monkey after iv administration; settings: macaca, in vivo
[6] = Clearance in human after iv administration; settings: in vivo
[7] = Volume of distribution at steady state in human after iv administration; settings: in vivo
[8] = Clearance in rat after iv administration; settings: in vivo

| SMILES | Vdss [1] | clearance [2] | Vd [3] | clearance [4] | Vd [5] | clearance [6] | Vd [7] | clearance [8] |
| --- | --- | --- | --- | --- | --- | --- | --- | --- |
| COc1ccc([C@H](CC(=O)O)N2CCN(CCCc3ccc4c(n3)NCCC4)C2=O)cn1 | 1.5 L/kg | 5.4 mL/min/kg | 0.9 L/kg | 9 mL/min/kg | 0.3 L/kg | 1 mL/min/kg | 0.2 L/kg | – |
| CCCN1CCC[C@@H](c2cccc(S(C)(=O)=O)c2)C1 | 1.5 L/kg | 36.7 mL/min/kg | 2.5 L/kg | 33.3 mL/min/kg | 1.4 L/kg | 7.2 mL/min/kg | 2.2 L/kg | 46.7 mL/min/kg |
| OC(CCN1CCCCC1)(c1ccccc1)C1CC2C=CC1C2 (stereo not given) [BIPERIDEN] | 14 L/kg | 27 mL/min/kg | 9.5 L/kg | 21.9 mL/min/kg | 3.6 L/kg | 15.3 mL/min/kg | 6.2 L/kg | – |
| CN(C)CCCN1c2ccccc2Sc2ccc(Cl)cc21 [CHLORPROMAZINE] | 29.1 L/kg | 53 mL/min/kg | 16.3 L/kg | 24.6 mL/min/kg | 8 L/kg | 4.3 mL/min/kg | 11.2 L/kg | 61 mL/min/kg |
| COc1ccc([C@@H]2Sc3ccccc3N(CCN(C)C)C(=O)[C@@H]2OC(C)=O)cc1 [DILTIAZEM] | 3.6 L/kg | 59 mL/min/kg | 21.4 L/kg | 34.5 mL/min/kg | 3.5 L/kg | 12 mL/min/kg | – | 82.3 mL/min/kg |
| CCOc1cc(Cc2cnc(N)nc2N)cc(OCC)c1-n1cccc1 [EPIROPRIM] | 4.6 L/kg | 10.7 mL/min/kg | 8.3 L/kg | 30.6 mL/min/kg | 5.1 L/kg | 3.5 mL/min/kg | 2.5 L/kg | 45 mL/min/kg |
| COc1ccc(Cl)cc1[C@]1(F)C(=O)Nc2cc(C(F)(F)F)ccc21 [FLINDOKALNER] | 3.4 L/kg | 3.1 mL/min/kg | 3.2 L/kg | 40.2 mL/min/kg | 5.4 L/kg | 7.63 mL/min/kg | 2.35 L/kg | 29.9 mL/min/kg |
| C[C@H]1NCc2cc(-c3ccc4c(=O)c(C(=O)O)cn(C5CC5)c4c3OC(F)F)ccc21 [GARENOXACIN] | 0.9 L/kg | 2.4 mL/min/kg | 1.3 L/kg | 3.4 mL/min/kg | 1 L/kg | 1.2 mL/min/kg | 1 L/kg | 12.1 mL/min/kg |
| O=C(CCCN1CCC(O)(c2ccc(Cl)cc2)CC1)c1ccc(F)cc1 [HALOPERIDOL] | 10.4 L/kg | – | 37 L/kg | – | 6.6 L/kg | – | – | – |
| Cc1ncc2n1-c1ccc(Cl)cc1C(c1ccccc1F)=NC2 [MIDAZOLAM] | 1.6 L/kg | 27 mL/min/kg | 3 L/kg | 24.2 mL/min/kg | 1.5 L/kg | 6.6 mL/min/kg | 1.1 L/kg | 67 mL/min/kg |
| CC#C[C@]1(O)CC[C@H]2[C@@H]3CCC4=CC(=O)CCC4=C3[C@@H](c3ccc(N(C)C)cc3)C[C@@]21C [MIFEPRISTONE] | 4.3 L/kg | 15.6 mL/min/kg | 10.5 L/kg | 24.2 mL/min/kg | 32.5 L/kg | 0.33 mL/min/kg | 0.3 L/kg | 50 mL/min/kg |
| COC(=O)C1=C(C)NC(C)=C(C(=O)OC)C1c1ccccc1[N+](=O)[O-] [NIFEDIPINE] | 0.13 L/kg | – | 1.15 L/kg | – | 0.5 L/kg | – | – | – |
| CC1COc2c(N3CCN(C)CC3)c(F)cc3c(=O)c(C(=O)O)cn1c23 (stereo not given) [OFLOXACIN] | 1.66 L/kg | 2.65 mL/min/kg | 1.15 L/kg | 7.5 mL/min/kg | 1.6 L/kg | 4.53 mL/min/kg | 1.78 L/kg | 26.3 mL/min/kg |
| CCN1CCC[C@H]1CNC(=O)c1c(OC)ccc(Br)c1OC [REMOXIPRIDE] | 4.5 L/kg | 4.9 mL/min/kg | 1.6 L/kg | 11.8 mL/min/kg | 1.1 L/kg | 1.7 mL/min/kg | 0.7 L/kg | 170 mL/min/kg |
| Cc1cc(C)c(/C=C2\C(=O)Nc3ccccc32)[nH]1 [SEMAXANIB] | 1.6 L/kg | 52 mL/min/kg | 1.4 L/kg | 25.7 mL/min/kg | 1.45 L/kg | 14 mL/min/kg | 0.98 L/kg | 45 mL/min/kg |
| CCC1=C[C@@H]2CN(C1)Cc1c([nH]c3ccccc13)[C@@](C(=O)OC)(c1cc3c(cc1OC)N(C)[C@H]1[C@@](O)(C(=O)OC)[C@H](OC(C)=O)[C@]4(CC)C=CCN5CC[C@]31[C@@H]54)C2 [VINORELBINE] | 24.4 L/kg | 20 mL/min/kg | 49.6 L/kg | 23.6 mL/min/kg | 11.4 L/kg | 21 mL/min/kg | 75.6 L/kg | 31.7 mL/min/kg |

— ChEMBL document CHEMBL1614630, “Extrapolation of preclinical pharmacokinetics and molecular feature analysis of "discovery-like" molecules to predict human pharmacokinetics” (Drug Metab Dispos, 2006)
